1 molecule from US20220244254A1, “Screening Methods and Assays for Use with Transmembrane Proteins, in Particular with GPCRs” (CONFO THERAPEUTICS N.V., priority 2019, published 2022) can be followed below.

For the assay, the target named is T1, M2 receptor (Homo sapiens, UniProt P08172, DEL233-374).
T1 construct: FLAG (N); expressed in transfected cells
T1 sequence (P08172 with tags, fused parts or gaps DEL233-374): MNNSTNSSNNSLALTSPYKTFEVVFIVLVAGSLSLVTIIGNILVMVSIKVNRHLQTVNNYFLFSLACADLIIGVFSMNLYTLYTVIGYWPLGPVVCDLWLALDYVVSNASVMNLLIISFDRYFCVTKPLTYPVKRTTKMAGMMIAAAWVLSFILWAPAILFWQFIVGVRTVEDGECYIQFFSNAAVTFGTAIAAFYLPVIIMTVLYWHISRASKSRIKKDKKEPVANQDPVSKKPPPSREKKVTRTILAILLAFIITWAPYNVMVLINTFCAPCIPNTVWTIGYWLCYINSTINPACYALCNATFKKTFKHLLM
Briefly: Assay of the invention: M2-LgBiT fusion and Nb9-8-SmBiT fusion. The assay is classed as cell-based.

With `Cc1c(Cl)c(OCC(=O)N2CCN(C)CC2)nc2sc(C(=O)NC3CC3)c(N)c12` [LY2119620], where the note is “LY2119620 itself, data not shown”, the “agonistic effect on the M2 receptor” value is on record as “some agonistic effect”. Also, under “iperoxo DRC with and without LY2119620”, the “effect on the dose-response curve of iperoxo” value was “effect as a positive allosteric modulator”.
